How the values were obtained:
E. coli ATCC 25922 = test: NCCLS broth microdilution MIC; type: cell-based; conditions: D = E. coli ATCC 25922
Protocol: (§1) Compounds according to this invention were screened for their in vitro activities against selected species of bacteria and fungi. The minimal inhibition concentration (MIC) of these compounds was determined using the National Committee for Clinical Laboratory Standards (NCCLS) broth microdilution assay in microtiter plates, as set forth in: (1) the guidelines of the National Committee for Clinical Laboratory Standards (NCCLS) Document M7-A4 (NCCLS, 1997); (2) the guidelines of the National Committee for Clinical Laboratory Standards (NCCLS) Document M11-A4 (NCCLS, 1997); and (3) the guidelines and reference method of the National Committee for Clinical Laboratory Standards (NCCLS) Document M27-T (NCCLS, 1995). For antifungal essays, the method recommended in Murray, P R., 1995 Manual of Clinical Microbiology (ASM Press, Washington, D.C.), was employed. […]

B. cereus ATCC 11778 = test: NCCLS broth microdilution MIC; type: cell-based, Bacillus cereus; conditions: C = B. cereus ATCC 11778
Protocol: as §1

5′-AAAAAGACAAAAA-3′ = type: binding; conditions: DNA sequence 5′-AAAAAGACAAAAA-3′; pH 7.0, 22° C.
Protocol: (§2) A number of compounds according to this invention were screened for their ability to bind to three DNA sites, using DNase I footprinting. Generally, the procedure described in Dervan, WO 98/50582 (1998), was followed.
(§3) A plasmid was prepared by hybridizing two sets of 5′-phosphorylated complementary oligonucleotides, one set being
(§4) The target sites and their complements are identified in bold underline.
(§5) The resulting duplexes were ligated to the large pUC19 AvaI/SalI restriction fragment. The 3′-P32 end-labeled EcoRI/PvuII fragment was prepared by digesting the plasmid with EcoRI and PvuII with simultaneous fill-in using Sequenase v. 2.0, [alpha-P32]-deoxyadenosine-5′-triphosphate, and [alpha-P32]-thymidine-5′-triphosphate, and isolating the cloned fragment by nondenaturing gel electrophoresis. Standard methods were used for all DNA manipulations, including A and G sequencing. See, e.g., Maxam et al., Methods Enzymol., 1980, 65, 499-560; Iverson et al., Methods Enzymol., 1987, 15, 7823-7830; and Sambrook et al., 1989, Molecular Cloning, 2nd ed., Cold Spring Harbor Laboratory Press: Cold Spring Harbor, N.Y.
(§6) Quantitative DNase I footprint titration experiments were carried out as described previously (Dervan, WO 98/50582, 1998, “Dervan '582”) with the following changes. All reactions were carried out in a total volume of 400 μL, with polyamide stock solution or water added to 15,000 cpm radiolabeled restriction fragment affording final solution conditions of 10 mM Tris.HCl, 10 mM KCl, 10 mM MgCl2, 5 mM CaCl2, pH 7.0 and 0.01 nM, 0.1 nM, 1.0 nM, 10.0 nM polyamide or no polyamide for reference lanes. The polyamides were allowed to equilibrate at 22° C. for 16 hr. Footprinting reactions were initiated with addition of 10 μL of a DNase I stock solution (at the appropriate concentration to give ˜50% intact DNA) containing 1 mM DTT and allowed to proceed for 7 min at 22° C. The reactions were stopped, ethanol precipitated, resuspended in loading buffer, heat denatured, and placed on ice as described in Dervan '582. The reaction products were separated on a precast 8% polyacrylamide denaturing sequencing Castaway gel with 32 preformed wells from Stratagene in 1× TBE at 2000 V. Gels were dried according to the manufacturer's instructions and exposed to a storage phosphor screen (Molecular Dynamics). Quantitation and data analysis were carried out as described in Dervan '582.

5′-AAAAAGCAAAAA-3′ = type: binding; conditions: DNA sequence 5′-AAAAAGCAAAAA-3′; pH 7.0, 22° C.
Protocol: as §2, §3, §4, §5, §6

5′-AAAAAGTACAAAAA-3′ = type: binding; conditions: DNA sequence 5′-AAAAAGTACAAAAA-3′; pH 7.0, 22° C.
Protocol: as §2, §3, §4, §5, §6

C. albicans ATCC 38247 = test: NCCLS broth microdilution MIC (antifungal); type: cell-based; conditions: E = C. albicans ATCC 38247
Protocol: as §1

S. aureus ATCC 29213 = test: NCCLS broth microdilution MIC; type: cell-based, Staphylococcus aureus; conditions: A = S. aureus ATCC 29213
Protocol: as §1

E. faecalis ATCC 29212 = test: NCCLS broth microdilution MIC; type: cell-based, Enterococcus faecalis; conditions: B = E. faecalis ATCC 29212
Protocol: as §1

S. pneumoniae ATCC 49619 = test: NCCLS broth microdilution MIC; type: cell-based, Streptococcus pneumoniae; conditions: F = S. pneumoniae ATCC 49619
Protocol: as §1

Compound | Minimum Inhibitory Concentration (MIC) (E. coli ATCC 25922) [µg/mL] | Minimum Inhibitory Concentration (MIC) (B. cereus ATCC 11778) | Equilibrium Association Constant (Ka) (5′-AAAAAGACAAAAA-3′) | Equilibrium Association Constant (Ka) (5′-AAAAAGCAAAAA-3′) | Equilibrium Association Constant (Ka) (5′-AAAAAGTACAAAAA-3′) | Minimum Inhibitory Concentration (MIC) (C. albicans ATCC 38247) | Minimum Inhibitory Concentration (MIC) (S. aureus ATCC 29213) | Minimum Inhibitory Concentration (MIC) (E. faecalis ATCC 29212) | Minimum Inhibitory Concentration (MIC) (S. pneumoniae ATCC 49619)
CN(C)CCCNC(=O)CCNC(=O)c1cc(NC(=O)c2cc(NC(=O)CCNC(=O)c3cc(NC(=O)c4cc(NC(=O)c5cc(Br)c(Br)s5)cn4C)cn3C)cn2C)cn1C [Id-1] | >32 | +++ (+++ = MIC ≦4) | ≧1 × 10^11 M^−1 | ≧1 × 10^11 M^−1 | ≧1 × 10^11 M^−1 | >32 µg/mL | +++ (+++ = MIC ≦4) | +++ (+++ = MIC ≦4) | +++ (+++ = MIC ≦4)
Cn1cc(NC(=O)c2cc(NC(=O)CCNC(=O)c3cc(NC(=O)c4cc(NC(=O)c5cc(Br)c(Br)s5)cn4C)cn3C)cn2C)cc1C(=O)NCCC(=O)NCCCN1CCNCC1 [Id-13] | >32 | >32 µg/mL | – | – | – | >32 µg/mL | >32 µg/mL | >32 µg/mL | >32 µg/mL
Cn1cc(NC(=O)c2cc(NC(=O)CCNC(=O)c3cc(NC(=O)c4cc(NC(=O)c5ccc(Br)s5)cn4C)cn3C)cn2C)cc1C(=O)NCCC(=O)NCCCNC1CCCCC1 [Id-15] | – | + (+ = MIC from 12 to 32, inclusive) | 5e+10 M⁻¹ | 5e+10 M⁻¹ | ≧1 × 10^11 M^−1 | >32 µg/mL | >32 µg/mL | + (+ = MIC from 12 to 32, inclusive) | ++ (++ = MIC between 4 and 12)
Cn1cc(NC(=O)c2cc(NC(=O)CCNC(=O)c3cc(NC(=O)c4cc(NC(=O)c5ccc(Br)s5)cn4C)cn3C)cn2C)cc1C(=O)NCCC(=O)NCC(C)(C)CN [Id-20] | >32 | >32 µg/mL | – | – | – | >32 µg/mL | >32 µg/mL | >32 µg/mL | +++ (+++ = MIC ≦4)
Cn1cc(NC(=O)c2cc(NC(=O)CCNC(=O)c3cc(NC(=O)c4cc(NC(=O)c5ccc(Br)s5)cn4C)cn3C)cn2C)cc1C(=O)NCCC(=O)NCc1cccnc1 [Id-23] | >32 | >32 µg/mL | – | – | – | >32 µg/mL | >32 µg/mL | +++ (+++ = MIC ≦4) | +++ (+++ = MIC ≦4)
Cn1cc(NC(=O)c2cc(NC(=O)CCNC(=O)c3cc(NC(=O)c4cc(NC(=O)c5cc(Br)c(NCCCN)s5)cn4C)cn3C)cn2C)cc1C(=O)NCCC(=O)NCCCN [Id-25] | >32 | +++ (+++ = MIC ≦4) | – | – | – | >32 µg/mL | + (+ = MIC from 12 to 32, inclusive) | + (+ = MIC from 12 to 32, inclusive) | +++ (+++ = MIC ≦4)
CN(C)CCCNC(=O)CCNC(=O)c1cc(NC(=O)c2cc(NC(=O)CCNC(=O)c3cc(NC(=O)c4cc(NC(=O)c5sccc5Cl)cn4C)cn3C)cn2C)cn1C [Id-27] | >32 | +++ (+++ = MIC ≦4) | – | – | – | + (+ = MIC from 12 to 32, inclusive) | ++ (++ = MIC between 4 and 12) | >32 µg/mL | +++ (+++ = MIC ≦4)
CN(C)CCCNC(=O)CCNC(=O)c1cc(NC(=O)c2cc(NC(=O)CCNC(=O)c3cc(NC(=O)c4cc(NC(=O)c5sccc5F)cn4C)cn3C)cn2C)cn1C [Id-30] | >32 | >32 µg/mL | – | – | – | >32 µg/mL | >32 µg/mL | >32 µg/mL | ++ (++ = MIC between 4 and 12)
CN(C)CCCNC(=O)c1cc(NC(=O)c2cc(NC(=O)c3cc(NC(=O)c4sccc4F)cn3C)cn2C)cn1C [Ie-4] | >32 | + (+ = MIC from 12 to 32, inclusive) | – | – | – | >32 µg/mL | ++ (++ = MIC between 4 and 12) | ++ (++ = MIC between 4 and 12) | +++ (+++ = MIC ≦4)
Cn1cc(NC(=O)c2cc(NC(=O)c3cc(NC(=O)c4sccc4F)cn3C)cn2C)cc1C(=O)NCCN1CCOCC1 [Ie-5] | >32 | +++ (+++ = MIC ≦4) | – | – | – | >32 µg/mL | +++ (+++ = MIC ≦4) | >32 µg/mL | +++ (+++ = MIC ≦4)
Cn1cc(NC(=O)c2cc(NC(=O)c3cc(NC(=O)c4sccc4Cl)cn3C)cn2C)cc1C(=O)NCCN1CCOCC1 [Ie-6] | >32 | +++ (+++ = MIC ≦4) | – | – | – | >32 µg/mL | +++ (+++ = MIC ≦4) | +++ (+++ = MIC ≦4) | +++ (+++ = MIC ≦4)
Cc1csc(C(=O)Nc2cc(C(=O)Nc3cc(C(=O)Nc4cc(C(=O)NCCN5CCOCC5)n(C)c4)n(C)c3)n(C)c2)c1Cl [Ie-11] | >32 | +++ (+++ = MIC ≦4) | – | – | – | >32 µg/mL | +++ (+++ = MIC ≦4) | +++ (+++ = MIC ≦4) | +++ (+++ = MIC ≦4)
CN(C)CCCNC(=O)CCNC(=O)c1cc(NC(=O)c2cc(NC(=O)c3cc(NC(=O)c4nc(NC(=O)CCCNC(=O)c5cc(NC(=O)c6cc(NC(=O)c7cc(NC(=O)c8cc(Br)c(Br)s8)cn7C)cn6C)cn5C)cn4C)cn3C)cn2C)cn1C [If-1] | >32 | >32 µg/mL | – | – | – | >32 µg/mL | >32 µg/mL | >32 µg/mL | >32 µg/mL
Cn1cc(NC(=O)c2cc(NC(=O)c3cc(NC(=O)c4ccc(Br)s4)cn3C)cn2C)cc1C(=O)NCCCC(=O)Nc1cn(C)c(C(=O)Nc2cc(C(=O)Nc3cc(C(=O)Nc4cc(C(=O)NCCC(=O)NCCCN5CCNCC5)n(C)c4)n(C)c3)n(C)c2)n1 [If-2] | >32 | >32 µg/mL | – | – | – | >32 µg/mL | >32 µg/mL | >32 µg/mL | >32 µg/mL

Source: patent publication US20060287247A1, “Halogen-substituted thienyl compounds” (priority 2001, published 2006)
